The test system of test [1] is acute myelogenous leukemia cells (MV-4-11 cells). Kind of test: Cytotoxicity to acute myelogenous leukemia cells (MV-4-11 cells), CCK-8. Particulars: Homo sapiens, MV4-11, 72 h.
Test [2] addresses BRD4 (BD1+BD2) bromodomain (Homo sapiens (Human), UniProt O60885). Kind of test: BRD4 binding inhibition (AlphaScreen, GST-BRD4 vs tetraacetylated histone H4 peptide). The method, boiled down: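 GST-BRD4 (BD1+BD2) and biotinylated tetraacetyl-histone H4 peptide, each at 100 nM in HEPES pH 7.4 buffer with BSA and DTT, were combined with compound. Glutathione acceptor and streptavidin donor beads were added, then incubated 30 min at room temperature in the dark. Read-out was AlphaScreen signal.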

[3] abbreviates: read-out: IC50, cytotoxicity against acute myelogenous leukemia cells.
Where [4] appears, read: read-out: MV-4-11 Cytotoxicity IC50.
[5] abbreviates: GST-BRD4 (BD1+BD2) / biotinylated acetyl-histone H4 (Lys5,8,12,16) peptide, read-out: IC50, BRD4 binding inhibition.
Setting [6] is: GST-BRD4 (BD1+BD2) vs biotinylated acetyl-histone H4 peptide, AlphaScreen, read-out: BRD4 IC50.

Read-outs that look alike come from different tables or passages of the source.

Ten molecules from patent US11028090B2 (Dong Wha Pharm. Co., Ltd., priority 2017, dated 2021) can be followed below.

A word on the IC50: it is the midpoint of a concentration-inhibition curve.

On to `COc1ccc2c(c1)nc(NCCCCC(=O)NCC(C)C)c1nnc(C)n12` [Example 655, 5-(7-methoxy-1-methyl-[1,2,4]triazolo[4,3-a]quinoxaline-4-ylamino)-pentanoic acid isobutylamide], for which the IC50 in test [1] (setting [3]) is no more than 0.2 µM; in test [1] (setting [4]), 0.08 µM; in test [2] (setting [5]), no more than 0.05 µM; in test [2] (setting [6]) it was 0.011 µM.

For the molecule `CCC(C)CNC(=O)CCCCNc1nc2cc(OC)c(OC)cc2n2c(C)nnc12` (stereo not drawn) [Example 649, 5-(7,8-dimethoxy-1-methyl-[1,2,4]triazolo[4,3-a]quinoxaline-4-ylamino)-pentanoic acid-(2-methyl-butyl)-amide], the IC50 was no more than 0.2 µM in test [1] (setting [3]), 0.16 µM in test [1] (setting [4]), no more than 0.05 µM in test [2] (setting [5]) and 0.023 µM in test [2] (setting [6]).

As to `CCC(C)OC(=O)NCCCCNc1nc2cc(OCCOC)ccc2n2c(C)nnc12` (stereo not drawn) [Example 368, {4-[7-(2-methoxy-ethoxy)-1-methyl-[1,2,4]triazolo[4,3-a]quinoxaline-4-ylamino]-butyl}-carbamic acid-sec-butylester], the IC50 in test [1] (setting [3]) was no more than 0.2 µM; in test [1] (setting [4]), 0.14 µM; in test [2] (setting [5]), no more than 0.01 µM; in test [2] (setting [6]), 0.01 µM.

For `COc1cc(C)c2c(c1)nc(NCCCCNC(=O)CC(C)C)c1nnc(C)n12` [Example 458, [4-(7-methoxy-1,9-dimethyl-[1,2,4]triazolo[4,3-a]quinoxaline-4-ylamino)-butyl]-3-methyl-butyramide], the IC50 is 0.53 µM in test [1] (setting [4]) and no more than 0.01 µM in test [2] (setting [5]).

On to `Cc1nnc2c(NCCCCNC(=O)CC(C)C)nc3ccc([N+](=O)[O-])cc3n12` [Example 550, 3-methyl-N-[4-(1-methyl-8-nitro-[1,2,4]triazolo[4,3-a]quinoxaline-4-ylamino)-butyl]-butyramide], for which the IC50 in test [1] (setting [3]) is no more than 0.2 µM; in test [1] (setting [4]), 0.157 µM; in test [2] (setting [5]), no more than 0.05 µM; in test [2] (setting [6]), 0.021 µM.

With `COc1ccc2c(c1)nc(NCCCCNC(=O)Cc1ccco1)c1nnc(C)n12` [Example 308, 2-furan-2-yl-N-[4-(7-methoxy-1-methyl-[1,2,4]triazolo[4,3-a]quinoxaline-4-ylamino)-butyl]-acetamide], the IC50 was no more than 0.2 µM in test [1] (setting [3]), 0.02 µM in test [1] (setting [4]) and 0.058 µM in test [2] (setting [6]).

For the molecule `Cc1nnc2c(NCCCCNC(=O)[C@@H](NC(=O)[C@@H](F)C(C)C)C(C)C)nc3cc(N4C[C@@H](C)O[C@@H](C)C4)ccc3n12` [Example 517], the IC50 in test [1] (setting [4]) was 0.236 µM; in test [2] (setting [5]), no more than 0.05 µM; in test [2] (setting [6]), 0.038 µM.

As to `COc1ccc2c(c1)nc(NCCCCNC(=O)CC(C)C)c1nnc(C(F)(F)F)n12` [Example 590, N-[4-(7-methoxy-1-trifluoromethyl-[1,2,4]triazolo[4,3-a]quinoxaline-4-ylamino)-butyl]-3-methyl-butyramide], the values for the IC50 in test [1] (setting [4]), in test [2] (setting [5]) and in test [2] (setting [6]) were 0.49 µM, no more than 0.05 µM and 0.029 µM, respectively.

As for `Cc1ccc2[nH]c(-c3ccc4c(c3)nc(NCCCCNC(=O)OC(C)(C)C)c3nnc(C)n34)nc2c1` [Example 219, {4-[1-methyl-7-(5-methyl-1H-benzoimidazole-2-yl)-[1,2,4]triazolo[4,3-a]quinoxaline-4-ylamino]-butyl}-carbamic acid-tert-butylester], the values for the IC50 in test [1] (setting [3]), in test [1] (setting [4]) and in test [2] (setting [6]) were no more than 0.2 µM, 0.079 µM and 0.068 µM, respectively.

As for `COc1ccc2c(c1)nc(NCCCCNC(=O)[C@H](C(C)C)N1CCC(O)CC1)c1nnc(C)n12` [Example 316, 2-(S)-(4-hydroxy-piperidine-1-yl)-N-[4-(7-methoxy-1-methyl-[1,2,4]triazolo[4,3-a]quinoxaline-4-ylamino)-butyl]-3-methyl-butyramide], the values for the concentration for half-maximal inhibition (IC50) in test [1] (setting [4]), in test [2] (setting [5]) and in test [2] (setting [6]) were 0.73 µM, no more than 0.05 µM and 0.041 µM, respectively.
